Data reported in PMC8443589, “Modelling human liver fibrosis in the context of non-alcoholic steatohepatitis using a microphysiological system” (Communications Biology, 2021).

Tests used:
[1] = tested on: liver MPS NASH model (PHH, KC and HSC co-cultures); test: Cue study: pro-fibrotic biomarkers TIMP-1, pro-collagen 1, fibronectin (Fig 5c); format: cell-based, human; conditions: fat medium + cue
Source text: Assessment of gene expression changes was supplemented by assessment of the secretome produced by NASH microtissues in the MPS after exposure to the various cues. Increased pro-inflammatory cytokine secretion is a defining characteristic in NASH patients, so we conducted a Luminex cytokine array covering 42 different biomarkers, cytokines and chemokines secreted into the culture media of the different microtissues at multiple time points. We consistently detected 27 out of the 42 biomarkers and observed that there was differential expression of cytokines and chemokines driven by the different cues applied to the micro-tissue (Fig. 5a, b). The LPS cue and the presence of higher NPC numbers were responsible for driving the largest increase in cytokine and chemokine release, with the largest increases in cytokines measured on day 14 (Fig. 5b). […] Similarly, to the cytokine production, these changes were not further enhanced by combining cues, as all the cue combinations containing TGFβ had the highest expression (Supp. Fig. 17c).
Fig. 5 Systems biology interrogation of liver MPS NASH model to determine physiologically relevant cues that promote soluble biomarker changes to mimic advanced NASH disease state. PHH, KC and HSC co-cultures were cultured in the MPS platform under a variety of conditions for 14 days to test number of NPCs, presence of fat, fructose, cholesterol, LPS and TGFβ for effects on the soluble biomarker profile of the liver MPS NASH model. Expression of biomarkers, cytokines and chemokines were compared, all concentrations were normalised by Z-transformation to allow comparison and shown relative to mean for each marker (white = not detected). a Cytokine expression compared with varying levels of NPCs; b for the high NPC group in the presence of additional cues; c Expression of pro-fibrotic biomarkers with varying NPC content and with additional varying cues in high NPC condition (additional data in Supp. Fig. 17). d Graphical summary of the changes that occur in the NASH model in the presence of Fat and Fat + TGFβ. All data were generated from a minimum of three independent replicate samples per condition.
The MPS LC12 plates consists of 12 individual bioreactors that contain pneumatically driven micro-pumps to recirculate cell culture medium through a collagen-coated scaffold. Cells were cultured using the protocol previously described[20],[21], but briefly, PHH were seeded at a density of 6 × 10^5 viable cells per well on the LC12 plates with each NPC population (KC and/or HSC) at a density of 6 × 10^4 viable cells per well. Each well contained a final volume of 1.6 mL of medium per well and maintained under a flow rate of 1.0 µL/s. Cells were seeded in Williams E medium containing primary hepatocyte thawing and plating supplements (Life Technologies, USA) and cultured initially under downward flow for 8 h before the flow was automatically reversed to upward flow for the next 16 h of culture. Microtissues were then cultured in either HEP-Lean or HEP-Fat medium, both media’s are proprietary to CN Bio Innovations Ltd. The HEP-Fat medium is a derivative of the HEP-LEAN medium and contains a mixture of saturated and unsaturated FFAs, as well as physiologically relevant quantities of insulin and sugars. Complete media changes were performed on all wells every 48–72 h. For certain experiments, the media was supplemented with additional additives from day 4 onwards: 1 ng/ml LPS (lipopolysaccharides from Escherichia coli O111:B4) (Sigma Aldrich, UK), 1 ng/ml recombinant TGF beta 1 protein (Abcam, UK); 500 µM Fructose (Sigma Aldrich, UK), 50 µg/ml Cholesterol (Sigma Aldrich, UK). […]

[2] = tested on: liver MPS NASH model (PHH, KC and HSC co-cultures); test: Cue study: secreted cytokines and chemokines (Luminex) with varying NPC number and added cues (Fig 5a, 5b); format: cell-based, human; conditions: for EGF relative expression (z-transformation) / Eotaxin relative expression (z-transformation) / FGF-2 relative expression (z-transformation) / Fit-3L relative expression (z-transformation) / Fractalkine relative expression (z-transformation) / G-CSF relative expression (z-transformation) / GM-CSF relative expression (z-transformation) / GRO relative expression (z-transformation) / IFN-a2 relative expression (z-transformation) / IL-1RA relative expression (z-transformation) / IL-4 relative expression (z-transformation) / IL-6 relative expression (z-transformation) / IL-7 relative expression (z-transformation) / IL-8 relative expression (z-transformation) / IL-15 relative expression (z-transformation) / IP-10 relative expression (z-transformation) / MCP-1 relative expression (z-transformation) / MCP-3 relative expression (z-transformation) / MDC relative expression (z-transformation) / MIP-1a relative expression (z-transformation) / MIP-1b relative expression (z-transformation) / TNFa relative expression (z-transformation) / VEGF relative expression (z-transformation): Fat media + cue
Source text: There is only limited understanding of the pathogenic drivers of NASH and their interaction, principally due to a lack of translational models that are amenable to detailed molecular analysis[2],[34]. Here, a systems biology ‘cue-signal-analysis’ paradigm[35],[36] was utilised to produce large factorial datasets to enable the identification of molecular pathways of importance. […] To create varying set ups of the NASH microtissues we created hepatocyte microtissues in the MPS with high numbers of NPC (60,000 KC and HSC—equivalent to 10% of microtissue population) and low numbers of NPCs (6000 KC and HSC—equivalent to 1% of microtissue), representing physiological and non-physiological cell ratios respectively. Next, we took these different microtissues and cultured them in media with or without FFA. Finally, we supplemented the media with lipopolysaccharide (LPS), TGFβ, fructose or cholesterol either as single ‘cues’, in pairs or all together (Fig. 4a). ‘Cues’ were selected for clinical association with NASH. LPS, is a pleiotropic inflammatory molecule, it is proposed to reach the liver via the hepatic portal vein after release from the gastrointestinal tract, contributing to disease progression[37],[38]. TGFβ has been extensively studied in relation to fibrosis due to its regulation of genes controlling collagen and matrix-modifying enzymes. Fructose is a key substrate for de-novo lipogenesis, a process that has been identified as a key event in lipid accumulation within NAFLD patients. Finally, cholesterol accumulation has also been linked to NASH disease aetiology.
Assessment of gene expression changes was supplemented by assessment of the secretome produced by NASH microtissues in the MPS after exposure to the various cues. Increased pro-inflammatory cytokine secretion is a defining characteristic in NASH patients, so we conducted a Luminex cytokine array covering 42 different biomarkers, cytokines and chemokines secreted into the culture media of the different microtissues at multiple time points. […]

## O=C(CO)[C@@H](O)[C@H](O)[C@H](O)CO [Fructose]
[1]; Day 6, high NPC
  Fibronectin (Fold change in cytokine production compared to control): 1.389
  Pro-collagen 1 (Fold change in cytokine production compared to control): 2.273
  TIMP-1 (Fold change in cytokine production compared to control): 1.299
[1]; Day 11, high NPC
  Fibronectin (Fold change in cytokine production compared to control): 0.7381
  Pro-collagen 1 (Fold change in cytokine production compared to control): 1.299
  TIMP-1 (Fold change in cytokine production compared to control): 0.1393
[1]; Day 14, high NPC
  Fibronectin (Fold change in cytokine production compared to control): 0.7006
  Pro-collagen 1 (Fold change in cytokine production compared to control): 0.7125
  TIMP-1 (Fold change in cytokine production compared to control): 0.2326
[2]; Day 6
  EGF relative expression (z-transformation): -1.038
  Eotaxin relative expression (z-transformation): -0.782
  FGF-2 relative expression (z-transformation): -1.187
  Fit-3L relative expression (z-transformation): -0.2857
  Fractalkine relative expression (z-transformation): -0.2691
  G-CSF relative expression (z-transformation): -0.36
  GM-CSF relative expression (z-transformation): -0.4175
  GRO relative expression (z-transformation): -0.4254
  IFN-a2 relative expression (z-transformation): 0.2777
  IL-1RA relative expression (z-transformation): 0.2038
  IL-4 relative expression (z-transformation): -1.323
  IL-6 relative expression (z-transformation): -0.4543
  IL-7 relative expression (z-transformation): -0.8373
  IL-8 relative expression (z-transformation): 0.2742
  IL-15 relative expression (z-transformation): -0.4814
  IP-10 relative expression (z-transformation): -0.2708
  MCP-1 relative expression (z-transformation): 0.3757
  MCP-3 relative expression (z-transformation): -0.2673
  MDC relative expression (z-transformation): 1.214
  MIP-1a relative expression (z-transformation): 0.03503
  MIP-1b relative expression (z-transformation): -0.1641
  TNFa relative expression (z-transformation): -0.2082
  VEGF relative expression (z-transformation): 1.537
[2]; Day 11
  EGF relative expression (z-transformation): -0.1015
  Eotaxin relative expression (z-transformation): 0.09562
  FGF-2 relative expression (z-transformation): -0.4563
  Fit-3L relative expression (z-transformation): 1.324
  Fractalkine relative expression (z-transformation): 0.9874
  G-CSF relative expression (z-transformation): -1.298
  GM-CSF relative expression (z-transformation): -0.6
  GRO relative expression (z-transformation): -0.3142
  IFN-a2 relative expression (z-transformation): 0.6908
  IL-1RA relative expression (z-transformation): 0.879
  IL-4 relative expression (z-transformation): -0.3331
  IL-6 relative expression (z-transformation): -0.2984
  IL-7 relative expression (z-transformation): -0.3548
  IL-8 relative expression (z-transformation): -0.6705
  IL-15 relative expression (z-transformation): 0.3314
  IP-10 relative expression (z-transformation): -0.257
  MCP-1 relative expression (z-transformation): 0.4252
  MCP-3 relative expression (z-transformation): -0.08763
  MDC relative expression (z-transformation): 0.03858
  MIP-1a relative expression (z-transformation): -0.4174
  MIP-1b relative expression (z-transformation): 0.1119
  TNFa relative expression (z-transformation): -0.3492
  VEGF relative expression (z-transformation): -0.07553
[2]; Day 14
  EGF relative expression (z-transformation): -0.09066
  Eotaxin relative expression (z-transformation): 1.581
  FGF-2 relative expression (z-transformation): 0.5869
  Fit-3L relative expression (z-transformation): 1.267
  Fractalkine relative expression (z-transformation): 0.9131
  G-CSF relative expression (z-transformation): 0.4426
  GM-CSF relative expression (z-transformation): -0.06657
  GRO relative expression (z-transformation): 0.04245
  IFN-a2 relative expression (z-transformation): 2.403
  IL-1RA relative expression (z-transformation): 1.114
  IL-4 relative expression (z-transformation): 0.7104
  IL-6 relative expression (z-transformation): 0.4182
  IL-7 relative expression (z-transformation): 1.313
  IL-8 relative expression (z-transformation): 0.7194
  IL-15 relative expression (z-transformation): 1.407
  IP-10 relative expression (z-transformation): 0.8479
  MCP-1 relative expression (z-transformation): 2.011
  MCP-3 relative expression (z-transformation): 1.298
  MDC relative expression (z-transformation): 0.1904
  MIP-1a relative expression (z-transformation): 0.03023
  MIP-1b relative expression (z-transformation): 0.8239
  TNFa relative expression (z-transformation): 0.4054
  VEGF relative expression (z-transformation): -1.095
[2]; day 15
  IP-10 production: biggest increase
